According to PubChem BioAssay AID256 (DTP/NCI, 2004):
“And” between values parts separate entries of the source, which are not always exact repeats. Identical values can stand only once. Inconclusive results and toxic doses are left out.

Test system: CD2F1 mice, L1210 leukemia ip, survival T/C
Assay: NCI In Vivo Anticancer Drug Screen. Data for tumor model L1210 Leukemia (intraperitoneal) in CD2F1 (CDF1) mice
Details: higher = longer survival
Outline: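 Antitumor effect is scored in animals hosting a serially transplanted tumor. Values compare compound-dosed animals against vehicle-only controls as a simple quotient.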

[1] = endpoint: mean survival time, dose: 25.0 mg/kg/injection, schedule: Q04DX002 (ip), vehicle: saline with Tween-80
[2] = endpoint: mean survival time, dose: 50.0 mg/kg/injection, schedule: Q04DX002 (ip), vehicle: saline with Tween-80
[3] = endpoint: mean survival time, dose: 100.0 mg/kg/injection, schedule: Q01DX001 (ip), vehicle: saline with Tween-80
[4] = endpoint: mean survival time, dose: 200.0 mg/kg/injection, schedule: Q01DX001 (ip), vehicle: saline with Tween-80
[5] = endpoint: mean survival time, dose: 100.0 mg/kg/injection, schedule: Q04DX003 (ip), vehicle: saline with Tween-80
[6] = endpoint: mean survival time, dose: 200.0 mg/kg/injection, schedule: Q04DX003 (ip), vehicle: saline with Tween-80
[7] = endpoint: mean survival time, dose: 400.0 mg/kg/injection, schedule: Q04DX003 (ip), vehicle: saline with Tween-80

SMILES: CCN(CC)c1cc(Cl)ccc1C
- T/C (endpoint: mean survival time, dose: 12.5 mg/kg/injection, schedule: Q04DX002 (ip), vehicle: saline with Tween-80): 98 % of control
- T/C [1]: 95 % of control
- T/C [2]: 98 % of control
- T/C (endpoint: mean survival time, dose: 100.0 mg/kg/injection, schedule: Q01DX001 (ip), vehicle: saline sonified): 101 % of control
- T/C (endpoint: mean survival time, dose: 200.0 mg/kg/injection, schedule: Q01DX001 (ip), vehicle: saline sonified): 95 % of control
- T/C (endpoint: mean survival time, dose: 400.0 mg/kg/injection, schedule: Q01DX001 (ip), vehicle: saline sonified): 86 % of control

SMILES: COc1cc2c3c(c1O)-c1c(ccc(OC)c1OC)CC3N(C)CC2 (centres undefined)
- T/C [3]: 92 % of control
- T/C [4]: 105 % of control
- T/C (endpoint: mean survival time, dose: 400.0 mg/kg/injection, schedule: Q01DX001 (ip), vehicle: saline with Tween-80): 97 % of control

SMILES: CCCCNC(C)(C)C(SSC(c1cccs1)C(C)(C)NCCCC)c1cccs1 (centres undefined)
- T/C (endpoint: mean survival time, dose: 25.0 mg/kg/injection, schedule: Q04DX003 (ip), vehicle: saline with Tween-80): 97 % of control
- T/C (endpoint: mean survival time, dose: 50.0 mg/kg/injection, schedule: Q04DX003 (ip), vehicle: saline with Tween-80): 101 % of control
- T/C [5]: 98 % of control

SMILES: C/C=C(\C)C(=O)O[C@@H]1c2cc3c(cc2-c2c(cc(OC)c(OC)c2OC)[C@@H]2C(=O)OC[C@@H]12)OCO3
- T/C (endpoint: mean survival time, dose: 1.25 mg/kg/injection, schedule: Q01DX009 (ip), vehicle: Klucel (hydroxypropylcellulose) (HPC)): 112 % of control
- T/C (endpoint: mean survival time, dose: 2.5 mg/kg/injection, schedule: Q01DX009 (ip), vehicle: Klucel (hydroxypropylcellulose) (HPC)): 106 % of control
- T/C (endpoint: mean survival time, dose: 5.0 mg/kg/injection, schedule: Q01DX009 (ip), vehicle: Klucel (hydroxypropylcellulose) (HPC)): 106 % of control
- T/C (endpoint: mean survival time, dose: 10.0 mg/kg/injection, schedule: Q01DX009 (ip), vehicle: Klucel (hydroxypropylcellulose) (HPC)): 95 % of control

SMILES: CCCCCCCCCCCc1cc(=O)n(-c2cc(Cl)ccc2Cl)n1C
- T/C [1]: 96 % of control
- T/C [2]: 88 % of control
- T/C (endpoint: mean survival time, dose: 100.0 mg/kg/injection, schedule: Q04DX002 (ip), vehicle: saline with Tween-80): 86 % of control

SMILES: O=C(NCCCCC(NC(=O)OCc1ccccc1)C(=O)ON1C(=O)CCC1=O)OCc1ccccc1 (centres undefined)
- T/C (endpoint: mean survival time, dose: 12.5 mg/kg/injection, schedule: Q01DX009 (ip), vehicle: other): 96 % of control
- T/C (endpoint: mean survival time, dose: 25.0 mg/kg/injection, schedule: Q01DX009 (ip), vehicle: other): 86 % of control
- T/C (endpoint: mean survival time, dose: 50.0 mg/kg/injection, schedule: Q01DX009 (ip), vehicle: other): 90 % of control
- T/C (endpoint: mean survival time, dose: 100.0 mg/kg/injection, schedule: Q01DX009 (ip), vehicle: other): 94 % of control
- T/C (endpoint: mean survival time, dose: 200.0 mg/kg/injection, schedule: Q01DX009 (ip), vehicle: other): 97 % of control

SMILES: NC(=O)/C=C1\NC(=O)CS1
- T/C (endpoint: mean survival time, dose: 100.0 mg/kg/injection, schedule: Q01DX009 (ip), vehicle: saline sonified): 97 % of control
- T/C [5]: 100 % of control
- T/C (endpoint: mean survival time, dose: 200.0 mg/kg/injection, schedule: Q01DX009 (ip), vehicle: saline sonified): 103 % of control
- T/C [6]: 91 % of control
- T/C (endpoint: mean survival time, dose: 400.0 mg/kg/injection, schedule: Q01DX009 (ip), vehicle: saline sonified): 88 % of control
- T/C [7]: 102 % of control

SMILES: Cc1ccccc1NCC#N
- T/C (endpoint: mean survival time, dose: 25.0 mg/kg/injection, schedule: Q01DX009 (ip), vehicle: saline with Tween-80): 101 % of control
- T/C (endpoint: mean survival time, dose: 50.0 mg/kg/injection, schedule: Q01DX009 (ip), vehicle: saline with Tween-80): 97 % of control
- T/C [5]: 93 % of control

SMILES: NNc1nc(=O)[nH]nc1Sc1ccccc1
- T/C (endpoint: mean survival time, dose: 75.0 mg/kg/injection, schedule: Q01DX001 (ip), vehicle: saline): 96 % of control
- T/C (endpoint: mean survival time, dose: 150.0 mg/kg/injection, schedule: Q01DX001 (ip), vehicle: saline): 101 % of control
- T/C (endpoint: mean survival time, dose: 300.0 mg/kg/injection, schedule: Q01DX001 (ip), vehicle: saline): 97 % of control

SMILES: Cc1ccc(/C=C(/F)OC(C)(C)C)cc1
- T/C (endpoint: mean survival time, dose: 50.0 mg/kg/injection, schedule: Q01DX001 (ip), vehicle: saline with Tween-80): 97 % of control
- T/C [3]: 101 % of control
- T/C [4]: 100 % of control

SMILES: O=C(O)C(O)C(O)C(O)C(O)C(O)CO.[NH-]C1CCCCC1[NH-].[Pt+2] (centres undefined)
- T/C (endpoint: median survival time, dose: 12.5 mg/kg/injection, schedule: Q04DX003 (ip), vehicle: saline): 153 % of control and 178 % of control
- T/C (endpoint: median survival time, dose: 25.0 mg/kg/injection, schedule: Q04DX003 (ip), vehicle: saline): 266 % of control and 297 % of control
- T/C (endpoint: median survival time, dose: 50.0 mg/kg/injection, schedule: Q04DX003 (ip), vehicle: saline): 175 % of control and 375 % of control
- T/C (endpoint: median survival time, dose: 100.0 mg/kg/injection, schedule: Q04DX003 (ip), vehicle: saline): 103 % of control

SMILES: COC(=O)c1ccc(C(=O)OC)cc1
- T/C (endpoint: mean survival time, dose: 100.0 mg/kg/injection, schedule: Q01DX009 (ip), vehicle: saline with Tween-80): 95 % of control
- T/C [5]: 93 % of control
- T/C (endpoint: mean survival time, dose: 200.0 mg/kg/injection, schedule: Q01DX009 (ip), vehicle: saline with Tween-80): 98 % of control
- T/C [6]: 104 % of control
- T/C (endpoint: mean survival time, dose: 400.0 mg/kg/injection, schedule: Q01DX009 (ip), vehicle: saline with Tween-80): 95 % of control
- T/C [7]: 101 % of control
